Some test systems named below: HOP-92 NSCLC; NCI-H460 lung; T-47D breast; 786-0 renal; SNB-78 CNS; A549 NSCLC; NCI-H23 lung; OVCAR-5 ovarian; TK-10 renal; CAKI-1 renal; SK-OV-3 ovarian; NCI-H226 lung; SF-295 CNS; MALME-3M melanoma; CCRF-CEM leukemia; LOX IMVI melanoma; HL-60(TB) leukemia; OVCAR-3 ovarian; U251 CNS; OVCAR-8 ovarian.
What all share (assay): DTP human tumour cell line panel, 48 h

TGI data for one molecule are collected here from PubChem BioAssay (NCI).

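Method: 48-hour compound exposure of cells in 96-well plates, five concentrations, linear interpolation of endpoints. TGI is the concentration that stops growth completely.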

The term TGI denotes the concentration at which net growth stops. A lower TGI goes with greater sensitivity of the cells. With `Cc1ccc(C(=O)OCC(C)C)cc1N=NN(C)C`, the TGI in the experiment on HOP-92 NSCLC, in the experiment with NCI-H460 lung, in the experiment with T-47D breast, in the experiment on 786-0 renal, in the experiment on SNB-78 CNS and in the experiment with A549 NSCLC was > 100 µM throughout. In addition, the TGI in the experiment on NCI-H23 lung, with OVCAR-5 ovarian, with TK-10 renal, in the experiment with CAKI-1 renal, with SK-OV-3 ovarian and with NCI-H226 lung was > 100 µM throughout. In addition, the TGI was > 87.5 µM in the experiment on SF-295 CNS; > 100 µM in the experiment with MALME-3M melanoma; > 100 µM in the experiment on CCRF-CEM leukemia; > 85.2 µM in the experiment on LOX IMVI melanoma; > 100 µM with HL-60(TB) leukemia; 90.6 µM in the experiment with OVCAR-3 ovarian. Further, the TGI with U251 CNS and in the experiment with OVCAR-8 ovarian was > 100 µM in each case.
